From paper PMC4792161, “A novel pyrazole derivative protects from ovariectomy-induced osteoporosis through the inhibition of NADPH oxidase” (Scientific Reports, 2016)
Marks after values point to notes of the source that are not given here.

Columns and labels:
[1] = Direct ROS (H2O2) scavenging in vitro; settings: 1 mM NAC, 1 mM H2O2, control scavenger
Source text: Based on the notion that the differentiation of OCs is mediated by Nox1/2/4-dependent ROS generation, we have performed a high throughput enzyme inhibitor screening assay to identify chemical compounds having Nox1/2/4 inhibitory activity for the development of an anti-osteoporosis agent. Purified Drosophila membranes expressing human Nox1, Nox2, or Nox4 were used to monitor ROS production by determining the oxidation of lucigenin, evident as chemiluminescence, in the absence or presence of chemical compound[18]. A chemical library containing 31,000 compounds was screened to identify Nox inhibitors. […] (Fig. 1B, Supplementary Fig. S2). […] Moreover, we investigated whether Ewha-18278 can directly scavenge ROS in vitro.
Supplementary Figure S3. (A) Ewha-18278 compounds can not directly scavenge superoxide or other reactive species in vitro. ROS (H2O2) measured with lucigenin. Reaction mixtures contained 1 […]
Luminescence measured over 30 min at 37
°C with luminometor (Gloma X luminometor, Turner BioSystem). […]
the phagocytosis of zymosan. […]
incubated with FITC-zymosan particles, and internalized fluorescence was measured by flow cytometry. The data are presented as the MFI of internalized FITC. Data represent mean ± S.D. […]

[2] = system: OVX-induced osteoporotic ddY mice; assay: Tibia histopathology-histomorphometry in OVX mice; format: in vivo; settings: 2.5 mg/kg oral once daily 28 days
[3] = system: OVX-induced osteoporotic ddY mice; assay: Femur histopathology-histomorphometry in OVX mice; format: in vivo; settings: 2.5 mg/kg oral once daily 28 days
Description: Risedronate sodium (2.5 mg/kg) served as a reference compound. […] Histopathology and histomorphometrical analyses including trabecular bone volume (BV/TV), trabecular bone number (Tb.N), trabecular bone length (Tb.Le), trabecular bone thickness (Tb.Th), cortical bone thickness (Ct.Th), OC number (N.Oc), bone mineral density (BMD) and bone strength (failure load, FL) were conducted.
(§1) The study was reviewed and approved by the Institutional Animal Care and Use Committee (IACUC) of Center for Laboratory Animal Sciences, Ewha Industry-University Cooperation Foundation, Ewha Womans University. Experimental methods were carried out in accordance with the approved ethic guidelines in Ewha Industry-University Cooperation Foundation, Ewha Womans University. Beginning 4 weeks after OVX, the female ddY mice received 2.5, 5, 10, or 20 mg/kg of #18–278, 2.5 mg/kg of risedronate, or vehicle once daily for 28 days. The Changes in body weight, bone weight, bone mineral density (BMD), failure load (FL), bone calcium (Ca), inorganic phosphorus (P) contents, histology and histomorphology were monitored. Serum osteocalcin and bone specific alkaline phosphatase (bALP) were monitored in mice receiving Ewha-18278.
The left side of femur of each mouse was separated and fixed in 10% neutral buffered formalin and decalcified in a solution comprised of 24.4% formic acid and 0.5N sodium hydroxide for 5 days, with spent solution replaced with fresh solution each day. Each sample was embedded in paraffin, sectioned to a thickness of 3–4 μm and exposed to with Hematoxylin & Eosin (H&E) stain. Histomorphometry was conducted as for bone mass and structure with bone resorption in a uniform area of epiphyseal regions of femur (growth plate regions were excluded). Cortical bone thickness was measured in the mid-shaft region of the femur.

[4] = system: OVX-induced osteoporotic ddY mice; assay: Bone strength (failure load, three-point bending test) in OVX mice; format: in vivo; settings: oral once daily 28 days; risedronate 2.5 mg/kg
[5] = Body weight changes in OVX mice; format: in vivo, ddY mice; settings: risedronate 2.5 mg/kg; Ewha-18278 2.5, 5, 10 and 20 mg/kg; 28 days
Description: as §1
R esi dronat e 2. 5mg/kg t reated mi ce […]
D ay after administration (d)
Supplementary Figure S7. Body weight changes in OVX mice. We selected eight mice per group showing more increases of body weights as compared with sham-operated mice and regarded as good OVX animals at four weeks after OVX surgery, consequently, significant increases of body weights were detected in all OVX groups as compared with sham control mice throughout 28 days of […]
mice, in the present study. Values are expressed mean ± S.D. of eight mice. Risedronate sodium was administered at 2.5mg/kg levels. […]

[6] = system: OVX-induced osteoporotic ddY mice; assay: Femur weights (wet, dry, ash) in OVX mice; format: in vivo; settings: 2.5 mg/kg oral once daily 28 days
Description: (§2) The right sides of femur and tibia were weighed and then dried at 120 °C for 8 hours. The dried bones were carbonized at 800 °C for 6 hours in a furnace (Daihan Scientific, Korea) to detect ash absolute weights, after measurement of BMD and failure load. To reduce the individual body weight differences, the relative weight (%) was calculated using body weight at sacrifice and absolute weight as [Relative bone weights = (Absolute bone weight/Body weight at sacrifice) ×100]. In addition, ashed bones were ground and dissolved in nitric acid. In diluted solution, Ca and P contents were calculated (mg/g bone) using an orthocresolphthalein complex and enzyme methods, respectively. The Ca/P ratio (%) was calculated as (Tibia Ca contents/Tibia P contents) ×100.

[7] = system: OVX-induced osteoporotic ddY mice; assay: Tibia weights (wet, dry, ash) in OVX mice; format: in vivo; settings: 2.5 mg/kg oral once daily 28 days
Description: as §2
Supplementary Table S4. Tibia Weights in OVX Mice Values are expressed mean ± S.D. of eight mice Risedronate sodium was administered at 2.5mg/kg levels a p<0.01 as compared with sham control […]
material OVX = ovariectomy
Groups Tibia absolute weights (g) Tibia relative weights (% of body weight)Wet Dry Ash Wet Dry Ash

OVX rats = settings: 2.5 mg/kg/day for 8 weeks; cited from earlier work
bone density = system: bone density; design: method as in PMID 16754727; settings: estrogen replacement; cited from earlier work

CC(=O)N[C@@H](CS)C(=O)O [N-acetyl cysteine, reference compound]
change in hydrogen peroxide concentration (ROS scavenging) [1]: decrease in hydrogen peroxide concentration

O=P(O)(O)C(O)(Cc1cccnc1)P(=O)(O)O [Risedronate, Risedronate sodium, reference compound]
BV/TV (trabecular bone volume) [2]: 35.71 ± 5.63 ^c %
Ct.Th (cortical bone thickness) [2]: 113.81 ± 14.45 ^a μm
N.OC/BS (osteoclast cell number, N/epiphyseal) [2]: 19.38 ± 3.20 ^ac numbers
Tb.Le (trabecular bone length) [2]: 0.76 ± 0.12 ^ac mm
Tb.N (trabecular bone number, N/epiphyseal) [2]: 19.25 ± 1.67 ^bc numbers
Tb.Th (trabecular bone thickness) [2]: 43.52 ± 8.73 ^ac μm
BV/TV (trabecular bone volume) [3]: 38.08 ± 7.20 ^c %
Ct.Th (cortical bone thickness) [3]: 128.36 ± 15.57 ^a μm
N.OC/BS (osteoclast cell number, N/epiphyseal) [3]: 19.00 ± 2.93 ^eg numbers
Tb.Le (trabecular bone length) [3]: 1.04 ± 0.12 ^ac mm
Tb.N (trabecular bone number, N/epiphyseal) [3]: 24.50 ± 4.00 ^eg numbers
Tb.Th (trabecular bone thickness) [3]: 47.25 ± 4.73 ^ad μm
bone strength (FL) of femur and tibia compared to control OVX [4]: did not show any favorable effects
body weights as compared with OVX control mice [5]: no meaningful changes
Femur absolute weights, Ash [6]: 0.037 g
Femur absolute weights, Dry [6]: 0.066 g
Femur absolute weights, Wet [6]: 0.096 g
Femur relative weights, Ash [6]: 0.102 % of body weight
Femur relative weights, Dry [6]: 0.181 % of body weight
Femur relative weights, Wet [6]: 0.263 % of body weight
Tibia absolute weights, Ash [7]: 0.031 g
Tibia absolute weights, Dry [7]: 0.050 g
Tibia absolute weights, Wet [7]: 0.071 g
Tibia relative weights, Ash [7]: 0.085 % of body weight
Tibia relative weights, Dry [7]: 0.137 % of body weight
Tibia relative weights, Wet [7]: 0.196 % of body weight
microstructural and biomechanical features of bone (OVX rats): maintains microstructural and biomechanical features of bone

O=C(c1ccc(OCCN2CCCCC2)cc1)c1c(-c2ccc(O)cc2)sc2cc(O)ccc12 [Raloxifene]
increase of bone density (bone density): 3–4%
